A short description of one series: Water solubility (HPLC). As to conditions: thermodynamic from solid, room temperature, mean of three experiments (SD). The format is physicochemical. On the procedure:
The HPLC system consisted of a Waters 600 HPLC pump (Waters Corporation, Milford, MA, USA), equipped with a Waters 2996 photodiode array detector. The column was a Kinetex RP-C8 column (3.0 x 150 mm, 5 μm). The mobile phase consisted of 0.1% TFA in acetonitrile/0.1% TFA in 95% H2O and 5% acetonitrile 50:50, under isocratic conditions at a flow rate of 1 mL/min. The UV detector was set at a length of 220 nm. […] Then the mixture was filtered using a Millipore filter (0.45 μm) and the concentration of the compound in its saturated solution was determined by HPLC analysis.

The nature of series [1]: Drug stability in simulated intestinal fluid with pancreatin. In kind it is in vitro ADME. Particulars: 37°C, read-out: t½ (converted). On the procedure: (§1) The HPLC system consisted of a Waters 600 HPLC pump (Waters Corporation, Milford, MA, USA), equipped with a Waters 2996 photodiode array detector. The column was a Kinetex RP-C8 column (3.0 x 150 mm, 5 μm). The mobile phase consisted of 0.1% TFA in acetonitrile/0.1% TFA in 95% H2O and 5% acetonitrile 50:50, under isocratic conditions at a flow rate of 1 mL/min. The UV detector was set at a length of 220 nm.
(§2) To assess enzymatic stability, hydrochloric buffer with pepsin (10 or 40 mg/mL) and phosphate buffer with pancreatin (10 or 40 mg/mL) were used. Buffer solution (250 μL) was preincubated at 37°C and 50 μL of drug stock solution (50 μM in ethanol and FASSIF 1:9) were added and shaken at 37°C and 650 rpm. Samples of 100 μL were withdrawn at various times and 100 µL of ice-cold acetonitrile containing 0.5 v/v% formic acid were added to stop enzymatic activity. Samples were vortexed and centrifuged at 2°C and 10000 rpm for 10 min. The drug content in the supernatant was analyzed by HPLC.

A further series has as its system pancreatin. The series is described as above. The format is in vitro ADME. As to conditions: 37°C. The procedure:
as §1, §2

The mark [2] stands for this setting: SIF pH 7.4, pancreatin 10 mg/mL.

≈ marks a conversion by molar mass, not a printed value. Where two headings read alike, the source gives them in different places.

In general, solubility refers to how much of the substance goes into solution per volume. In the series “Water solubility (HPLC)”, `C=CCSC[C@H](NC(C)=O)C(=O)Oc1cc(C(C)C)ccc1C` [codrug 4, N-Ac-Cys(Allyl)-CAR] displayed a solubility at 15 min of 150 µg/mL (≈ 447 µM). For the same molecule, the half-life at 8.3 µM is 5.5 h in series [1] (simulated intestinal fluid with pancreatin 10 mg/mL, pH 7.4, SIF pH 7.4, pancreatin 10 mg/mL) and about 1 h in series [1] (simulated intestinal fluid with pancreatin 40 mg/mL, pH 7.4, SIF pH 7.4, pancreatin 40 mg/mL). In addition, the kobs was 0.126 (± 0.003) h^-1 in the series on pancreatin (setting [2]) and 0.83 (± 0.02) h^-1 in the series with pancreatin (SIF pH 7.4, pancreatin 40 mg/mL). In the series on pancreatin (setting [2]), the t½ is recorded as 5.51 (± 0.13) h.
